Results on ten molecules are retold here after patent publication US9783838B2, “PmST3 enzyme for chemoenzymatic synthesis of alpha-2-3-sialosides” (The Regents of the University of California, priority 2012, dated 2017).

Data set [1] has as its target T1, PmST3Δ35-His6 (Pasteurella multocida, UniProt Q9CLP3). In kind it is biochemical. The method, then: For metal effects, various concentrations (1, 5, 10, or 20 mM) of MgCl2 or MnCl2 were used. Ethylenediaminetetraacetic acid (EDTA) as a chelating agent was used at two concentrations (1 or 10 mM). A reducing reagent dithiothreitol (DTT) was used at two concentrations (1 or 10 mM). Reaction without metal ions, EDTA, or DTT was used as a control. The reaction was quenched by adding 490 μl of pre-chilled acetonitrile:water (20:80). Samples were kept on ice until being analyzed by HPLC equipped with a fluorescent detector (315 nm excitation and 400 nm emission).

Data set [2] addresses T2, PmST1 (Pasteurella multocida, UniProt Q15KI8). The note with it: cited from earlier work.
For data set [3], the system named is PmST2. The note with it: cited from earlier work.
The next data set has as its system CstI. To be noted: truncated monofunctional α2-3-sialyltransferase CstI; cited from earlier work.
Data set [4] addresses T1, PmST3Δ35-His6. Kind of data set: Acceptor substrate specificity of PmST3Δ35-His6. In kind it is biochemical. The note with it: acceptor 2 mM, CMP-Neu5Ac 2 mM, 37° C., pH 7.5. The method, then:
All reactions were carried out in duplicate at 37° C. in Tris-HCl (200 mM, pH 7.5) containing an acceptor substrate (2 mM), CMP-Neu5Ac (2 mM), and PmST3Δ35-His6 (0.25 μg μl^−1). At 10 min or 4 hr, aliquots of reaction mixture were withdrawn and added to pre-chilled acetonitrile:water (20:80) (for reactions with acceptors containing 2-aminobenzoic acid (2AA) or 4-methylumbelliferone (MU) aglycone) or pre-chilled 95% ethanol (for reactions with acceptor containing Pro-triazole-C14 or pNP aglycone) and samples were kept on ice until being analyzed. Samples with acceptors containing 2AA (315 nm excitation and 400 nm emission) or MU (326 nm excitation and 372 nm emission) were analyzed by HPLC equipped with a fluorescent detector. Samples with acceptor containing Pro-triazole-C14 (214 nm) or pNP (300 nm) aglycone were centrifuged at 13,000 rpm for 5 min and analyzed by capillary electrophoresis (CE) equipped with a photodiode array (PDA) detector as described previously using sodium borate buffer (50 mM, pH 10.2) containing β-cyclcodextrin (20 mM) as a running buffer (Glycobiology, 21:1206-1216).

The subject of data set [5] is PmST2. The note with it: up to 20 mM; cited from earlier work.
For data set [6], the target named is T2, PmST1. The note with it: cited from earlier work. This is another data set of the same source.
The subject of data set [7] is CC(=O)N[C@H]1[C@H]([C@H](O)[C@H](O)CO)O[C@](OP(=O)(O)OC[C@H]2O[C@@H](n3ccc(N)nc3=O)[C@H](O)[C@@H]2O)(C(=O)O)C[C@@H]1O. Kind of data set: purified protein, by the assay type. To be noted: other: apparent, 37° C., Tris-HCl pH 7.5, other substrate fixed at 1 mM.
Description: Reactions were carried out in duplicate at 37° C. for 7 min in a total volume of 10 μl in a Tris-HCl buffer (200 mM, pH 7.5).
Data set [8] can be described thus: Storage stability of purified truncated PmST3 proteins. In kind it is physicochemical. The method, then: To further improve the expression of the soluble and active protein, three C-terminal truncated versions of PmST3 (PmST3Δ20-His6, PmST3Δ35-His6, and PmST3Δ45-His6 with the removal of C-terminal 20, 35, and 45 amino acid residues) were cloned into pET22b(+) vector as C-His6 (SEQ ID NO:37) tagged fusion proteins. […] For PmST3Δ45-His6, the expression of soluble protein was improved to the level of MBP fusion protein (4 mg of purified protein from 1 liter of cell culture by Ni^2+-NTA affinity chromatography). However, PmST3Δ45-His6 seemed to have stability issues. […] Under the same expression conditions, purified PmST3Δ35-His6 can be routinely obtained at a level of 29 mg from cell lysate from one liter of cell culture.

A short description of data set [9]: Comparison of three Pasteurella multocida sialyltransferases (activities and acceptor use). In kind it is biochemical.
Data set [10] can be described thus: pH profile of α2-3-sialyltransferase activity. In kind it is biochemical. The method, then: pH profile of PmST3Δ35-His6. Reactions were carried out in duplicate at 37° C. for 10 min. […] Buffers used were: MES-KOH (pH 4.0-6.5), Tris-HCl (pH 7.0-9.0), and CHES (pH 10.0). Enzymatic reaction was quenched by adding 490 μl of pre-chilled acetonitrile:water (20:80) mixture. The samples were kept on ice until being analyzed by a Shimadzu LC-2010A HPLC system equipped with a membrane on-line degasser, a temperature control unit, and a fluorescence detector (the excitation wavelength was set at 315 nm and the emission wavelength was set at 400 nm) using a reverse phase Premier C18 column (250×4.6 mm I.D., 5 μm particle size, Shimadzu) protected with a C18 guard column cartridge. Mobile phase used was 20% acetonitrile in water.

Like-named read-outs stand apart in the source and are kept apart here. Where only a bound is given, the exact number is not on record here.

As for `O[C@H](CS)[C@H](O)CS` (racemic) [DTT, dithiothreitol], the “effect on enzyme activity” value on PmST3Δ35-His6 [1] (DTT 1 or 10 mM) is listed as “Change of activity was not observed”.
A word on the Km: it is the substrate concentration at which the rate is half of its maximum. As for `CC(=O)N[C@H]1[C@H]([C@H](O)[C@H](O)CO)O[C@](OP(=O)(O)OC[C@H]2O[C@@H](n3ccc(N)nc3=O)[C@H](O)[C@@H]2O)(C(=O)O)C[C@@H]1O` [CMP-Neu5Ac, Cytidine 5′-monophosphate N-acetylneuraminic acid], the values for the Km at PmST1 [2], with PmST2 [3] and with CstI were 440 µM, 1300 ± 100 µM and 400 µM, respectively.
For the molecule `O=C(O)CN(CCN(CC(=O)O)CC(=O)O)CC(=O)O` [EDTA, Ethylenediaminetetraacetic acid], the “effect on enzyme activity” value on PmST3Δ35-His6 [1] (EDTA up to 10 mM) is on record as “did not affect”.
Consider `O=[N+]([O-])c1ccc(O[C@@H]2O[C@H](CO)[C@H](O)[C@H](O)[C@H]2O)cc1` [GalβpNP, p-nitrophenyl β-galactoside], for which, at PmST3Δ35-His6 [4], the “% Conv. (10 min)” value was less than 1% and the “% Conv. (4 h)” value worked out at 9.4 ± 0.4%.
Taken in the same sequence, the figures for `Cc1cc(=O)oc2cc(O[C@@H]3O[C@H](CO)[C@@H](O[C@@H]4O[C@H](CO)[C@H](O)[C@H](O)[C@H]4O)[C@H](O)[C@H]3O)ccc12` [LacβMU, 4-methylumbelliferyl β-lactoside] were 29.9 ± 1.2% and 65.6 ± 1.6%.
On to `[Cl-].[Cl-].[Mg+2]` [MgCl2], for which the “effect on enzyme activity” value with PmST2 [5] and on PmST3Δ35-His6 [1] (MnCl2 or MgCl2 up to 20 mM) was “did not affect” each time.
In the case of `[Cl][Mn][Cl]` [MnCl2], the “effect on α2-3-sialyltransferase activity” value on PmST1 [6] (5 mM or 10 mM) is listed as “decreased”; at PmST1 [6] (20 mM), “almost abolished”. Further, the “effect on enzyme activity” value in the data set on PmST2 [5] and on PmST3Δ35-His6 [1] (MnCl2 or MgCl2 up to 20 mM) was “did not affect” in each case.
What is called Vmax is the top rate of the reaction or transport when substrate is in excess. A word on the kcat: it is the maximal rate divided by the concentration of active sites. What is called kcat/Km is the second-order rate constant that governs catalysis at low substrate concentration. On to “PmST3Δ35-His6 (Pasteurella multocida subsp. multocida str. Pm70)”, for which, in data set [7], the Km was found to be 260 ± 10 µM, the Vmax was found to be 44 µM/min, the kcat amounted to 0.122 ± 0.00167 s⁻¹ and the kcat/Km worked out at 467 M⁻¹ s⁻¹.

B1: PmST3Δ45-His6: C-terminal 45 residue truncated, C-His6 tagged PmST3, SEQ ID NO: 12 (protein)
chain: MDKFAEHEIPKAVIVAGNGESLSQIDYRLLPKNYDVFRCNQFYFEERYFLGNKIKAVFFTPGVFLEQYYTLYHLKRNNEYFVDNVILSSFNHPTVDLEKSQKIQALFIDVINGYEKYLSKLTAFDVYLRYKELYENQRITSGVYMCAVAIAMGYTDIYLTGIDFYQASEENYAFDNKKPNIIRLLPDFRKEKTLFSYHSKDIDLEALSFLQQHYHVNFYSISPMSPLSKHFPIPTVEDDCETTFVAPLKENYINDILLVDKLAAALEHHHHHH
modifications: synthetic C-terminal truncated Pasteurella multocida sialyltransferase 3 (PmST3, Pm1174) C-His-6 tagged fusion protein PmST3delta45-His-6
For the molecule B1, the “storage stability (precipitation)” value in data set [8] (after 3 days of storage at 4° C. after dialysis against 10% glycerol and 25 mM Tris-HCl, pH 7.5) is listed as “Precipitation was observed”.

B2: PmST3Δ35-His6: C-terminal 35 residue truncated, C-His6 tagged PmST3 α2-3-sialyltransferase, SEQ ID NO: 11 (protein)
chain: MDKFAEHEIPKAVIVAGNGESLSQIDYRLLPKNYDVFRCNQFYFEERYFLGNKIKAVFFTPGVFLEQYYTLYHLKRNNEYFVDNVILSSFNHPTVDLEKSQKIQALFIDVINGYEKYLSKLTAFDVYLRYKELYENQRITSGVYMCAVAIAMGYTDIYLTGIDFYQASEENYAFDNKKPNIIRLLPDFRKEKTLFSYHSKDIDLEALSFLQQHYHVNFYSISPMSPLSKHFPIPTVEDDCETTFVAPLKENYINDILLPPHFVYEKLGVDKLAAALEHHHHHH
modifications: synthetic C-terminal truncated Pasteurella multocida sialyltransferase 3 (PmST3, Pm1174) C-His-6 tagged fusion protein PmST3delta35-His-6
As to B2, the “storage stability (activity)” value in data set [8] (after 3 months of storage in 10% glycerol and 25 mM Tris-HCl (pH 7.5) buffer) is “remained active”. Further, in [9], the “Use galactosyl glycolipids as acceptors” value is given as “Yes”, the “Use galactosyl oligosaccharides as acceptors” value is reported as “Yes”, the α2-3-sialidase activity entry is reported as “No” and the α2-3-sialyltransferase activity entry was “Yes”. Moreover, in [9], the α2-3-trans-sialidase activity entry is on record as “No” and the α2-6-sialyltransferase activity result was “No”. For the same molecule, the “optimal pH range for α2-3-sialyltransferase activity” value in data set [10] (LacβPro2AA as acceptor) was 6.5-9.0. For the same molecule, the “activity outside the optimal pH range” value in data set [10] (pH below 6.0 or 10.0) was “decreased dramatically”.
